# PubChem BioAssay (NCI)
# Where “and” joins values, the source holds several entries; their conditions need not be identical. Equal entries are not always repeated.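 1) Cells in 96-well plates. 2) Compound, 48 h, 5 concentrations. 3) Linear interpolation between surrounding doses. 4) Unreached endpoint = highest concentration. Here, GI50 denotes the concentration required for 50% inhibition of growth. TGI denotes the concentration required for complete inhibition of growth.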
# Columns and labels:
# Assay in all cases: inhibition of tumour cell growth, NCI panel, 48 h
# [1] = tested on: PC-3 prostate
# [2] = tested on: SF-539 CNS
# [3] = tested on: K-562 leukemia
# [4] = tested on: NCI-H460 lung
# [5] = tested on: KM12 colon
# [6] = tested on: HT29 colon
# [7] = tested on: IGROV1 ovarian
# [8] = tested on: NCI-H226 lung
# [9] = tested on: M14 melanoma
# [10] = tested on: MOLT-4 leukemia
Structure (SMILES),TGI [1],TGI [2],TGI [3],TGI [4],TGI [5],TGI [6],TGI [7],TGI [8],TGI [9],TGI [10],GI50 [1],GI50 [2],GI50 [3],GI50 [4],GI50 [5],GI50 [6],GI50 [7],GI50 [8],GI50 [9],GI50 [10]
COC(NC(N)=O)C(=O)O (configuration not stated),> 100 µM,> 100 µM,> 100 µM,> 100 µM,> 100 µM,> 100 µM,> 100 µM,> 100 µM,> 100 µM,> 100 µM,–,–,–,–,–,–,–,–,–,–
Cc1c(N)nc([C@H](CC(N)=O)NC[C@H](N)C(N)=O)nc1C(=O)N[C@H](C(=O)N[C@H](C)[C@@H](O)CC(=O)N[C@H](C(=O)NC(O[C@@H]1O[C@@H](C)[C@@H](N)[C@@H](O)[C@H]1O)C(O)c1nc(-c2nc(C(=O)NCCCCN)cs2)cs1)[C@@H](C)O)[C@@H](O[C@@H]1O[C@@H](CO)[C@@H](O)[C@H](O)[C@@H]1O[C@H]1O[C@H](CO)[C@@H](O)[C@H](OC(N)=O)[C@@H]1O)c1c[nH]cn1 (some centres not stated),> 50 µM,> 50 µM,> 50 µM,> 50 µM,> 50 µM,> 50 µM,> 50 µM,> 50 µM,> 50 µM,> 50 µM,–,–,–,–,–,–,–,–,–,–
CC(CN1CC(=O)NC(=O)C1)N1CC(=O)NC(=O)C1 (configuration not stated),> 750 µM,> 750 µM,> 750 µM,> 622 µM,> 729 µM,> 687 µM,> 725 µM,505 µM,> 750 µM,> 750 µM,–,–,–,–,–,–,–,–,–,–
c1cc(CN2CCCNCCNCCCNCC2)ccc1CN1CCCNCCNCCCNCC1,> 100 µM,> 100 µM,> 100 µM,> 100 µM,> 100 µM,> 100 µM,> 100 µM,> 100 µM,> 100 µM,> 100 µM,> 100 µM,> 100 µM,> 100 µM,> 100 µM,> 100 µM,> 100 µM,> 100 µM,> 100 µM,> 100 µM,> 100 µM
C=C(C)[C@@H]1C/C=C(/CO)CC[C@H]2O[C@]2(C)CC/C=C(\C)CC1,30.9 µM,33.7 µM,26.1 µM,27 µM,32.4 µM,31.6 µM,41.3 µM,43.7 µM,29.9 µM,32 µM,11.8 µM,18 µM,5.73 µM,11.5 µM,16.1 µM,14.5 µM,18.6 µM,19.7 µM,15 µM,12.7 µM
Nc1ncnc2c1c(-c1ccc(Oc3ccccc3)cc1)nn2C[C@H]1SSC[C@@H]1O,18.2 µM,12 µM,4.08 µM,0.206 µM,16.4 µM,7.35 µM,8.11 µM,5.15 µM,0.206 µM,0.361 µM,3.01 µM,1.41 µM,0.342 µM,0.0445 µM,0.242 µM,0.304 µM,1.43 µM,1.73 µM,0.071 µM,0.0825 µM
CCCCC[C@H]1CC=C2C(=O)C=C[C@@H]2CC=CCCCC(=O)O[C@@H](CCCCC)CC=C2C(=O)C=C[C@@H]2CC=CCCCC(=O)O[C@@H](CCCCC)CC=C2C(=O)C=C[C@@H]2CC=CCCCC(=O)O1,1.5 µM,> 8.75 µM,> 8.75 µM,2.87 µM,1.22 µM,1.21 µM,1.57 µM,3.81 µM,1.79 µM,> 8.75 µM,0.342 µM,0.322 µM,0.317 µM,0.488 µM,0.31 µM,0.313 µM,0.279 µM,1.13 µM,0.279 µM,0.266 µM
Cc1cn(CCC(N)C(=O)O)c(=O)[nH]c1=O (configuration not stated),> 100 µM,> 100 µM,> 100 µM,> 100 µM,> 100 µM,> 100 µM,> 100 µM,> 100 µM,> 100 µM,> 100 µM,–,–,–,–,–,–,–,–,–,–
O=C(Nc1ccc2ncnc(Nc3ccc(Oc4cccc(F)c4)c(Cl)c3)c2c1)c1ccc(CN2CCOCC2)cc1,10.6 µM,6.99 µM,11.7 µM,6.39 µM,7.66 µM,11.7 µM,5.5 µM,33.7 µM,4.68 µM,4.98 µM,2.24 µM,2.51 µM,2.47 µM,2.39 µM,2.57 µM,2.97 µM,1.4 µM,5.12 µM,2.03 µM,1.8 µM
CN(C)C(=S)/N=c1\ssc(=S)n1Cc1cccs1,> 100 µM,15.1 µM,> 55.8 µM,> 89.7 µM,> 100 µM,> 100 µM,> 100 µM,> 100 µM,> 100 µM,> 100 µM,–,–,–,–,–,–,–,–,–,–
COC1CC(C)C(OC)c2cc(O)cc(c2O)NC(=O)/C(C)=C/C=C\C(C)C(OC(N)=O)/C(C)=C\C(C)C1OC (configuration not stated),16.4 µM and 8.51 µM,10.2 µM and 8.61 µM,–,18.4 µM and 8.56 µM,1.9 µM and 2.83 µM,12.2 µM and 10.3 µM,15.9 µM and 8 µM,24.3 µM and 24.4 µM,18.7 µM and 10.5 µM,–,0.201 µM and 0.44 µM,0.271 µM,0.0333 µM and 0.143 µM and 0.0785 µM,0.348 µM and 0.42 µM,0.111 µM and 0.184 µM,0.0526 µM and 0.116 µM,0.273 µM and 0.506 µM,–,0.267 µM and 1.27 µM,0.0437 µM and 0.0746 µM
CCn1c(-c2c(Cl)cc(O)cc2Cl)cc2c(Cl)cc(O)cc21,> 100 µM,23.2 µM,> 100 µM,18.4 µM,61 µM,6.82 µM,12.9 µM,> 100 µM,91.5 µM,> 100 µM,–,–,–,–,–,–,–,–,–,–
COc1ccc(C(C#N)=C2C=CC(=NO)C=C2)cc1,17.1 µM,13.8 µM,> 100 µM,12 µM,4.04 µM,12.5 µM,8 µM,15.2 µM,19.6 µM,> 100 µM,3.74 µM,3.79 µM,7.26 µM,3.17 µM,1.79 µM,3.59 µM,2.8 µM,3.97 µM,6.09 µM,4.58 µM
